US20230263817A1, “HIGH DOSE NICOTINAMIDE ADENINE DINUCLEOTIDE (NAD) PRECURSOR REGIMENS FOR REDUCTION OF INFLAMMATION IN HUMAN PATIENTS WITH PREEXISTING INFLAMMATION” (University of Washington, priority 2021, published 2023)

Legend:
[1] = test system: NLRP3 and pro-inflammatory cytokine (IL1β, IL6, IL18, TNFα) mRNA in healthy PBMCs; assay: RT-qPCR of NLRP3 and pro-inflammatory cytokine mRNA in healthy PBMCs treated in vitro; type: cell-based, human
Protocol: PBMC and Monocyte Culture. Freshly isolated PBMCs or Monocytes from healthy or HF subjects were resuspended with RPMI medium plus 10% heat inactivated FBS. PBMCs (10^6 cells/well) were seeded in Seahorse 24-well plates and incubated at 37° C. in CO2 incubator with various proinflammatory triggers (Vehicle, MitoDAMP, LPS) and compounds (NR, MCC 950, MitoTempo, or LMT-28). After 4 hours incubation, the plate was centrifuged at 40 g for 10 minutes at room temperature without application of the brake to help cells attach to the bottom of the plate. The cells were washed twice and then brought up to 500 μL using Seahorse base medium (Agilent Technologies, supplemented with 1 mM pyruvate, 2 mM glutamine, and 10 mM glucose, pH 7.4).
IL6 ELISA. Isolated PBMCs (4×10^6 cells per sample) from healthy or HF participants were resuspended in RPMI medium containing 10% heat-inactivated FBS and treated with various proinflammatory triggers (Vehicle, MitoDAMP, LPS) and compounds (NR, MCC 950, MitoTempo, or LMT-28) to final PBMC concentrations of 10×10^6 cells per mL. See below for detailed descriptions of the reagents. The samples were incubated in Eppendorf tubes at 37° C. in a 5% CO2 incubator with caps open for times designated in the brief description of drawings. The cultured PBMC samples were centrifuged at 8,000 RPM at room temperature. The supernatant was used for ELISA per the manufacture protocol using R&D Systems human IL6 kit (Cat #DY206-05). The cell pellets were stored in −80° C.
RNA Isolation and Quantitative PCR analysis. Total RNA was isolated from frozen PBMC pellets using Trizol (Invitrogen) per the manufacturer's instructions, and cDNA was synthesized using iScript™ Reverse Transcription Supermix (Bio-rad) per the manufacturer's instructions. Real-time PCR was performed in the Corbett rotor gene 6000 real-time PCR machine using iQ™ SYBR® Green Supermix (Bio-rad) and expression levels of the indicated genes were calculated using the ΔΔCt method.

[2] = Whole blood NAD+ in Stage D HF patients on oral NR for 5-9 days; type: in vivo, human; settings: oral NR up to 1000 mg twice a day, post vs pre
Protocol: For experiments associated with the oral NR administration (FIGS. 12C-12F), 5 hospitalized Stage D HF patients undergoing advanced heart failure therapy evaluations were put on escalating doses of NR (250 mg twice a day for Day 1, 500 mg twice a day for Day 2, and 1000 mg twice a day from Day 3 on) for 5-9 days. Fasting blood samples were obtained for PBMC isolation at baseline and post-NR administration. Subject 5 was withdrawn due to a change in clinical course deemed to be independent from NR administration.
Whole bloodNAD^+ assays. These were performed as previously described (Airhart S E, et al., PLoS One. 2017, 12(12):e0186459). Briefly, 50 μL of thawed blood samples were added to tubes containing 1 μg BMP as the internal standard and immediately followed by 300 μL of 4% trichloroacetic acid to precipitate proteins. Calibration standards were similarly prepared except that the matrix was 30 mg/mL BSA spiked with NAD^+ and NMN that had been dissolved in methanol. After protein precipitation and high-speed centrifugation, the supernatants were loaded onto Costar Spin-X 0.22 μm spin filters and subject to high speed centrifugation again. The eluates were injected onto an Agilent 1100 series high performance liquid chromatograph coupled to an Agilent G1956B single-quadrupole mass spectrometer. The mass spectrometer was operated in electrospray ionization mode with positive polarity.

[3] = test system: peripheral blood mononuclear cells (PBMCs); assay: Randomized trial of NR in HFrEF: PBMC mitochondrial respiration; type: in vivo, human; settings: Week 12 vs Week 0, NR group
Protocol: (§1) Peripheral Blood Mononuclear Cell (PBMC) Mitochondrial Function. PBMCs were isolated from freshly-collected whole blood by centrifugation in Sepmate™-50 PBMC isolation tubes (STEMCELL Technologies, Vancouver, BC, Canada; Cat. 85450). Isolated PBMCs were resuspended in Seahorse XF® medium (Agilent, Cat. 102353-100) and then plated (10^6 cells/well) onto Seahorse® (Agilent) 24-well plates. PBMC mitochondrial respiratory function was assessed by measuring the oxygen consumption rate (OCR) at baseline and maximal stimulated conditions as described in Zhou B, et al. (J Clin Invest. 2020, 130:6054-6063 (Experimental Example 1)). Exploratory Endpoints. The following endpoints were considered exploratory, as the Study was underpowered to detect differences.

[4] = Randomized trial of NR in HFrEF: exploratory endpoints (6MWD, MLHFQ, echocardiography); type: in vivo, human; settings: Week 12 vs baseline; study not powered
Protocol: as §1
Six minute walk distance (6MWD). Any potential “training” effect (Laboratories ATSCoPSfCPF. ATS statement: guidelines for the six-minute walk test. Am J Respir Crit Care Med. 2002, 166:111-7) for 6MWD results was mitigated by performing a “training” test at the Screening Visit, while the second test, performed at the Randomization Visit was considered the Baseline test.
Echocardiography. Serial echocardiograms were performed using a standardized data collection protocol determined using the TOMTEC Arena Image-Com (TOMTEC Imaging Systems, Unterschleissheim, Germany). All echocardiograms were interpreted by a single observer, blinded to participant clinical data, randomized treatment assignment and echocardiogram temporal sequence. For evaluation of left ventricular systolic function by 2-dimensional (2-D), transthoracic echocardiography, 28 study pairs (NR=18, placebo=10) had evaluable data. For evaluation of left ventricular diastolic function by […] (E/e′), 24 study pairs (NR=17, placebo=7) had evaluable data.
Minnesota Living with Heart Failure Questionnaire (MLHFQ). The MLHFQ was administered to Study participants at the Screening and Randomization visits, as well as at Study visits at Weeks 2, 3, 4, 8 and 12.

In the case of `NC(=O)c1ccc[n+]([C@@H]2O[C@H](CO)[C@@H](O)[C@H]2O)c1` [NR, nicotinamide riboside], the “proinflammatory cytokine gene expressions” value ([1]; 4-hour 10 ng/mL LPS with 1 mM NR relative to LPS alone) is reported as “reducing”, the “proinflammatory cytokine gene expressions” value ([1]; 4-hour MitoDAMP with 1 mM NR relative to MitoDAMP only) is reported as “reduction” and the “whole blood NAD+ levels” value [2] is reported as “increases”. The “baseline (basal) PBMC mitochondrial respiration rates” value [3] was “not changed”, the “maximal PBMC respiration” value ([3]; did not reach statistical significance) was “marginal increase” and the “functional capacity, 6-minute walk test distance, NR vs placebo” value [4] was “No on-trial differences between groups”. For the same compound, the “left ventricular diastolic function (E/e′), NR vs placebo” value [4] was “No on-trial differences between groups”, the “left ventricular systolic function, 2D-LVEF, NR vs placebo” value [4] was “No on-trial differences between groups” and the “quality of life, MLHFQ score, NR vs placebo” value [4] was “No on-trial differences between groups”.
